Laboratory results reported in patent publication US7432276B2, “ABCA1 elevating compounds” (CV Therapeutics, Inc., priority 2005, dated 2008).

System: ABCA1 mRNA
Assay: ABCA1 mRNA induction in THP-1 cells, QuantiGene branched DNA assay
Assay type: cell-based
Details: 10 μM test compound, 18-20 hours
Outline: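 THP-1 cells, grown to subconfluence, treated with compounds at 10 and 3 μM in DMEM/BSA for 18–20 h. Lysates hybridized with ABCA1-specific probe 16–18 h at 53 °C; QuantiGene branched DNA luminescence gives fold increase over DMSO.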

SMILES | ABCA1 Induction Fold Increase over DMSO Vehicle [FOLD INCREASE]
COc1cccc2c1[C@H]1Nc3ccc(Cc4nnn[nH]4)cc3C(C)(C)[C@H]1CO2 [Number 84, (12aS,6aR)-1-methoxy-7,7-dimethyl-9-(1,2,3,4-tetraazol-5-ylmethyl)-7,12,12a,6a-tetrahydrochromano[4,3-b]quinoline] | 8.6
COc1cccc2c1OC[C@@H]1[C@@H]2Nc2ccc(C(C)C)cc2C1(C)C [Number 47, (12aS,6aS)-4-methoxy-7,7-dimethyl-9-(methylethyl)-7,12,12a,6a-tetrahydrochromano[4,3-b]quinoline] | 3.6
COc1cc(-c2ccccc2)cc2c1OC[C@H]1[C@@H]2Nc2ccc(C(O)(C(F)(F)F)C(F)(F)F)cc2C1(C)C [Number 77, 2-((12aS,6aR)-4-methoxy-7,7-dimethyl-2-phenyl(7,12,12a,6a-tetrahydrochromano[4,3-b]quinolin-9-yl))-1,1,1,3,3,3-hexafluoropropan-2-ol] | 5.3
COc1cccc2c1C1Nc3ccc(C(N)=O)cc3C(C)(C)C1CO2 (stereo not drawn) [Number 45, 1-methoxy-7,7-dimethyl-7,12,12a,6a-tetrahydrochromano[4,3-b]quinoline-9-carboxamide] | 4.9
CC1(C)c2cc(C(N)=O)ccc2NC2c3cc(Br)ccc3OCC21 (stereo not drawn) [Number 5, 2-bromo-7,7-dimethyl-7,12,12a,6a-tetrahydrochromano[4,3-b]quinoline-9-carboxamide] | 3.5
COc1cccc2c1[C@H]1Nc3ccc(-c4csc(C)n4)cc3C(C)(C)[C@H]1CO2 [Number 110, (12aS,6aR)-1-methoxy-7,7-dimethyl-9-(2-methyl(1,3-thiazol-4-yl))-7,12,12a,6a-tetrahydrochromano[4,3-b]quinoline] | 6.0
COc1cccc2c1[C@H]1Nc3ccc(-n4ncc(C(=O)N5CCS(=O)(=O)CC5)c4C)cc3C(C)(C)[C@H]1CO2 [Number 141, 1-((6aR,12aS)-6a,7,12,12a-tetrahydro-1-methoxy-7,7-dimethyl-6H-chromeno[4,3-b]quinolin-9-yl)1-5-methyl-1H-pyrazole-4-((1,1-dione-1,4-thiazaperhydroin-yl)methanone)] | 7.1
COc1ccc(Br)c2c1OCC1C2Nc2ccc(OC(C)C)cc2C1(C)C (stereo not drawn) [Number 83, 1-bromo-4-methoxy-7,7-dimethyl-9-(methylethoxy)-7,12,12a,6a-tetrahydrochromano[4,3-b]quinoline] | 2.7
COc1cccc2c1[C@H]1Nc3ccc(C(=O)N4CCS(=O)(=O)CC4)cc3C(C)(C)[C@H]1CO2 [Number 121, ((6aR,12aS)-6a,7,12,12a-tetrahydro-1-methoxy-7,7-dimethyl-6H-chromeno[4,3-b]quinolin-9-yl)(1,1-dione-1,4-thiazaperhydroin-yl)methanone] | 3.2
COc1cccc2c1[C@H]1Nc3cc(C#N)ccc3C(C)(C)[C@H]1CO2 [Number 63, (12aS,6aR)-1-methoxy-7,7-dimethyl-7,12,12a,6a-tetrahydrochromano[4,3-b]quinoline-10-carbonitrile] | 3.5
COc1cccc2c1OCC1C2Nc2ccc(Br)cc2C1(C)C (stereo not drawn) [Number 75, 9-bromo-4-methoxy-7,7-dimethyl-7,12,12a,6a-tetrahydrochromano[4,3-b]quinoline] | 7.4
COc1cccc2c1[C@H]1Nc3ccc(-n4cc(C(=O)N5CCS(=O)(=O)CC5)cn4)cc3C(C)(C)[C@H]1CO2 [Number 138, 1-((6aR,12aS)-6a,7,12,12a-tetrahydro-1-methoxy-7,7-dimethyl-6H-chromeno[4,3-b]quinolin-9-yl)1-1H-pyrazole-4-((1,1-dione-1,4-thiazaperhydroin-yl)methanone)] | 7.4
CC(=O)c1ccc2c(c1)C(C)(C)C1COc3c(F)cccc3C1N2 (stereo not drawn) [Number 101, 1-(4-fluoro-7,7-dimethyl-7,12,12a,6a-tetrahydrochromano[4,3-b]quinolin-9-yl)ethan-1-one] | 4.0
COc1cccc2c1[C@H]1Nc3ccc(-c4ccc(C#N)cc4)cc3C(C)(C)[C@@H]1CO2 [Number 92, 4-((12aS,6aS)-1-methoxy-7,7-dimethyl-7,12,12a,6a-tetrahydrochromano[4,3-b]quinolin-9-yl)benzenecarbonitrile] | 8.7
COc1cccc2c1[C@H]1Nc3ccc(C(=O)N4CCN(C(=O)OC(C)(C)C)CC4)cc3C(C)(C)[C@H]1CO2 [Number 125, ((6aR,12aS)-6a,7,12,12a-tetrahydro-1-methoxy-7,7-dimethyl-6H-chromeno[4,3-b]quinolin-9-yl)(4-tert-butyl-carboxylate-piperazin-1-yl)methanone] | 4.1
CC1(C)c2cc(C(O)(C(F)(F)F)C(F)(F)F)ccc2NC2c3cc(Cl)cc(Cl)c3OCC21 (stereo not drawn) [Number 68, 2-(2,4-dichloro-7,7-dimethyl(7,12,12a,6a-tetrahydrochromano[4,3-b]quinolin-9-yl))-1,1,1,3,3,3-hexafluoropropan-2-ol] | 2.7
COC(=O)c1cccc(-c2ccc3c(c2)C(C)(C)[C@H]2COc4cccc(OC)c4[C@H]2N3)c1 [Number 113, methyl 3-((12aS,6aR)-1-methoxy-7,7-dimethyl-7,12,12a,6a-tetrahydrochromano[4,3-b]quinolin-9-yl)benzoate] | 1.5
CCS(=O)(=O)N1CCN(C(=O)c2coc(-c3ccc4c(c3)C(C)(C)[C@H]3COc5cccc(F)c5[C@H]3N4)n2)CC1 [Number 142, 2-((6aR,12aS)-1-fluoro-6a,7,12,12a-tetrahydro-7,7-dimethyl-6H-chromeno[4,3-b]quinolin-9-yl)oxazole-(4-(4-ethanesulfonylpiperazin-1-yl)methanone)] | 5

Same assay, conditions: Homo sapiens, 10 μM test compound, 18-20 hours, read-out: ABCA1 Induction Fold Increase over DMSO Vehicle

SMILES | fold induction at 10 µM
COc1cccc2c1[C@@H]1[C@H](CO2)C(C)(C)c2ccccc2N1C(C)C [Number 155, (6aR,12aS)-6a,7,12,12a-tetrahydro-12-isopropyl-1-methoxy-7,7-dimethyl-6H-chromeno[4,3-b]quinoline] | 2.7
COc1cccc2c1[C@H]1Nc3ccc(S(=O)(=O)CC(=O)O)cc3C(C)(C)[C@H]1CO2 [Number 124, 2-((6aR,12aS)-6a,7,12,12a-tetrahydro-1-methoxy-7,7-dimethyl-6H-chromeno[4,3-b]quinolin-9-ylsulfonyl)acetic acid] | 3.3
COC(=O)CCN1c2ccccc2C(C)(C)[C@@H]2COc3cccc(OC)c3[C@@H]21 [Number 170, methyl 3-((6aS,12aR)-6a,7-dihydro-1-methoxy-7,7-dimethyl-6H-chromeno[4,3-b]quinolin-12(12aH)-yl)propanoate] | 2.3
COc1cc(-c2c(C)noc2C)cc2c1OC[C@H]1[C@@H]2Nc2ccc(-c3cnco3)cc2C1(C)C [Number 165, (6aR,12aS)-6a,7,12,12a-tetrahydro-4-methoxy-7,7-dimethyl-2-(3,5-dimethylisoxazol-4-yl)-9-(oxazol-5-yl)-6H-chromeno[4,3-b]quinoline] | 7.4
COc1cc(Br)cc2c1OC[C@@H]1[C@@H]2Nc2ccc(-c3nnn[nH]3)cc2C1(C)C [Number 169, (6aS,12aS)-2-bromo-6a,7,12,12a-tetrahydro-4-methoxy-7,7-dimethyl-9-(1H-tetrazol-5-yl)-6H-chromeno[4,3-b]quinoline] | 9.7
CCN1c2ccccc2C(C)(C)[C@@H]2COc3cccc(OC)c3[C@H]21 [Number 163, (6aS,12aS)-12-ethyl-6a,7,12,12a-tetrahydro-1-methoxy-7,7-dimethyl-6H-chromeno[4,3-b]quinoline] | 3.1
COc1cccc2c1OC[C@@H]1[C@@H]2Nc2ccc(C(=O)N3CCOCC3)cc2C1(C)C [Number 120, ((6aS,12aS)-6a,7,12,12a-tetrahydro-4-methoxy-7,7-dimethyl-6H-chromeno[4,3-b]quinolin-9-yl)(morpholino)methanone] | 4.2
CCOP(=O)(Cc1ccc2c(c1)C(C)(C)C1COc3cccc(OC)c3C1N2)OCC (stereo not drawn) [Number 180, diethyl(6a,7,12,12a-tetrahydro-1-methoxy-7,7-dimethyl-6H-chromeno[4,3-b]quinolin-9-yl)methylphosphonate] | 2.2
CC1(C)C2=C(Nc3ccc(B(O)O)cc31)c1ccc(C(=O)O)cc1OC2 [Number 17, 9-(dihydroxyboramethyl)-7,7-dimethyl-7,12-dihydro-6H-chromeno[4,3-b]quinoline-3-carboxylic acid] | 1.8
COc1cccc2c1[C@H]1Nc3ccc(C(=O)N4CCNCC4)cc3C(C)(C)[C@H]1CO2 [Number 127, ((6aR,12aS)-6a,7,12,12a-tetrahydro-1-methoxy-7,7-dimethyl-6H-chromeno[4,3-b]quinolin-9-yl)(piperazin-1-yl)methanone] | 5.1
CCS(=O)(=O)N1CCN(C(=O)c2ccc3c(c2)C(C)(C)[C@@H]2COc4c(F)cccc4[C@H]2N3)CC1 [Number 139, ((6aS,12aS)-4-fluoro-6a,7,12,12a-tetrahydro-7,7-dimethyl-6H-chromeno[4,3-b]quinolin-9-yl)(4-ethanesulfonylpiperazin-1-yl)methanone] | 2.8
COc1cccc2c1OC[C@H]1[C@@H]2Nc2ccc(-c3ccc(F)cc3)cc2C1(C)C [Number 99, (12aS,6aR)-9-(4-fluorophenyl)-4-methoxy-7,7-dimethyl-7,12,12a,6a-tetrahydrochromano[4,3-b]quinoline] | 1.7
